In US20250243343A1, “LUBRICANT COMPOSITION FOR PREPARING ETHYLENE-BASED POLYMER AND METHOD OF PREPARING ETHYLENE-BASED POLYMER USING THE SAME” (SK INNOVATION CO., LTD., priority 2024, published 2025):

Key:
[1] = Acrylic acid self-polymerization (time until PAA formation); conditions: for Polymerization time: oil:stabilizer 100:0.5, AA:lubricant composition 1:1 by weight, 100° C.; for polymerization stability time / PAA formation inhibition effect (in words): Table 1
Protocol: The reactor was heated to 100° C., followed by observing whether a self-polymer (PAA) was formed in the reactor every 10 minutes. As soon as the PAA was observed visually, the experiment was stopped and a polymerization time was recorded.

[2] = Measurement of solubility of the oxidation stabilizer in white mineral oil (visual observation); conditions: Table 1
Protocol: A lubricant composition was prepared by mixing a white mineral oil and the oxidation stabilizer of Table 1 below in a weight ratio of 100:0.1.
The lubricant composition was left for 1 hour and observed visually. If precipitation occurred or the lubricant composition discolored or became opaque, it was evaluated as “X.” When no precipitation occurred and the lubricant composition was colorless and transparent, it was evaluated as “O.”

[3] = nitrogen atmosphere, PAA observed visually every 10 minutes

Row | Compound | Polymerization time [1, 3] | other results
1 | CC(C)(C)c1cc(CO)cc(C(C)(C)C)c1O [B-6, 2,6-Di-tert-butyl-4-hydroxymethylphenol] | 2 h | –
2 | CCC(C)(C)c1ccc(O)c(C(C)(C)CC)c1 [B-9, 2,4-Di-tert-amylphenol] | 2 h | –
3 | COc1ccc(O)c(C(C)(C)C)c1 [A-3, 3-tert-butyl-4-hydroxyanisole] | 72 h | –
4 | c1ccc2c(c1)Nc1ccccc1S2 [B-3, Phenothiazine] | >150 h | solubility in the white mineral oil (in words) [2]: not substantially dissolved
5 | CC(C)(C)c1cc(O)c(O)c(C(C)(C)C)c1 [B-17, 3,5-Di-tert-butylcatechol] | 5 h | –
6 | COc1ccc(O)c(C(C)(C)C)c1 [A-1, Butylated hydroxyanisole] | >150 h | polymerization stability time / PAA formation inhibition effect (in words) [1]: greatly increased; solubility in the white mineral oil (in words) [2]: high
7 | bis(nonylphenyl)amine [B-16] | 0.667 h | –
8 | CCc1cc(Cc2cc(CC)cc(C(C)(C)C)c2O)c(O)c(C(C)(C)C)c1 [B-10, 2,2′-Methylenebis(6-tert-butyl-4-ethylphenol)] | 0.333 h | –
9 | COc1cc(C(C)(C)C)c(O)c(C(C)(C)C)c1 [A-2, 2,6-Di-tert-butyl-4-methoxyphenol] | 23 h | –
10 | CCCCCCCCOc1ccc(C(=O)c2ccccc2)c(O)c1 [B-18, 2-hydroxy-4-n-octyloxybenzophenone] | 0.333 h | –
11 | COc1ccc(O)cc1 [B-2, 4-Methoxyphenol] | >150 h | solubility in the white mineral oil (in words) [2]: greatly decreased
12 | CC(C)(C)c1cc(C(=O)O)cc(C(C)(C)C)c1O [B-7, 3,5-Di-tert-butyl-4-hydroxybenzoic acid] | 0.333 h | –
13 | Cc1cc(C(C)(C)C)c(O)c(C(C)(C)C)c1 [B-1, Butylated hydroxytoluene] | 2 h | polymerization stability time / PAA formation inhibition effect (in words) [1]: greatly reduced
14 | CC(C)(C)c1cc(CCC(=O)OCCSCCOC(=O)CCc2cc(C(C)(C)C)c(O)c(C(C)(C)C)c2)cc(C(C)(C)C)c1O [B-13, 2,2″-Thiodiethylene Bis [3-(3,5-di-tert-butyl-4-hydroxyphenyl) propionate]] | – | Polymerization time ([1]; class symbol): — (When the PAA was formed within 10 minutes, it was evaluated as “-.”)
15 | CC(C)(C)CC(C)(C)c1cc(O)c(C(C)(C)CC(C)(C)C)cc1O [B-11, 2,5-Bis(1,1,3,3-tetramethylbutyl) hydroquinone] | 2 h | –
16 | CCOP(=O)(Cc1cc(C(C)(C)C)c(O)c(C(C)(C)C)c1)OCC [B-8, Diethyl 3,5-Di-tert-butyl-4-hydroxybenzylphosphonate] | 0.333 h | –
17 | CCCCCCCCSc1nc(Nc2cc(C(C)(C)C)c(O)c(C(C)(C)C)c2)nc(SCCCCCCCC)n1 [B-12] | – | Polymerization time ([1]; class symbol): — (When the PAA was formed within 10 minutes, it was evaluated as “-.”)
18 | CCCCCCCCSc1nc(Nc2cc(C(C)(C)C)c(O)c(C(C)(C)C)c2)nc(SCCCCCCCC)n1 [B-19] | 0.333 h | –
19 | Cc1c(C)c2c(c(C)c1O)CC[C@@](C)(CCC[C@H](C)CCC[C@H](C)CCCC(C)C)O2 [B-4, Vitamin E] | 0.5 h | –
20 | CC(C)(C)c1cccc(C(C)(C)C)c1O [B-5, 2,6-Di-tert-butylphenol] | – | Polymerization time ([1]; class symbol): — (When the PAA was formed within 10 minutes, it was evaluated as “-.”)
21 | CCc1cc(C(C)(C)C)c(O)c(C(C)(C)C)c1 [B-14, 2,6-Di-tert-butyl-4-ethylphenol] | – | Polymerization time ([1]; class symbol): — (When the PAA was formed within 10 minutes, it was evaluated as “-.”)
